From ChEMBL document CHEMBL1122879, “Racemic and optically active 1,3,3-trimethyl-4-phenyl-4-(propionyloxy)piperidine” (1985)

Legend:
Assay type in all cases: functional
Rattus norvegicus [1] = species: Rattus norvegicus; test: Effective dose for antinociceptive activity in rats
Mus musculus = test: Effective dose for antinociceptive activity in mice hot plate test s.c.; details: sc
Rattus norvegicus [2] = test: Effective dose for antinociceptive activity in rat tail-withdrawal test i.v.

Row | SMILES | ED50 (Rattus norvegicus [1]) [mg/kg] | ED50 (Mus musculus) [mg/kg] | ED50 (Rattus norvegicus [2]) [mg/kg]
1 | CCC(=O)O[C@@]1(c2ccccc2)CCN(C)CC1(C)C | 0.5 | – | –
2 | CCC(=O)OC1(c2ccccc2)CCN(C)CC1(C)C (racemic) | – | 0.61 | 0.63
3 | CCOC(=O)C1(c2ccccc2)CCN(C)CC1 [MEPERIDINE] | – | 4.1 | 6.15
